According to US7531655B2, “Large conductance calcium-activated K channel opener” (Mitsubishi Tanabe Pharma Corporation, priority 2002, dated 2009):

Assays:
[1] = test system: rhythmic bladder contractions induced by substance P; experiment: Inhibitory effect on the rhythmic bladder contractions induced by substance P in anesthetized rats; format: in vivo, rat; conditions: 0.25 mg/kg intravenous; time during which frequency of rhythmic contraction was completely inhibited; urethane-anesthetized Sprague-Dawley female rats
Procedure: Inhibitory Effect on the Rhythmic Bladder Contractions Induced by Substance P in Anesthetized Rats For the experiments, Sprague-Dawley female rats (9 to 12 weeks old) weighing between 200 to 300 g were used. After urethane anesthetization (subcutaneously administered with a dose of 1.2 g/kg), cannulae were placed in both right and left femoral veins. One intravenous catheter was used for administration of compounds, and the other was for the substance P (0.33 μg/kg/min) infusion. We also cannulated into ureter to pass urine. Polyethylene catheters were inserted into carotid artery for continuous monitoring of arterial blood pressure and heart rate. For continuous infusion, transurethral bladder catheter was inserted into the bladder through the urethra and tied in place by a ligature around the urethral orifice. One end of the catheter was attached to a pressure transducer in order to measure intravesical pressure. The other end of the catheter was used for infusion of saline into the bladder. After stabilization of blood pressure and heart rate and after the bladder was emptied, cystometry was performed by filling the bladder slowly with about 0.6 ml of saline. After about 10 minutes, intravenous infusion of substance P (0.33 μg/kg/min) was started for stabilization of the micturition reflex. […]

[2] = test system: isolated rabbit urinary bladder; experiment: Relaxation effect on potassium-induced contraction of isolated rabbit urinary bladder; format: cell-based; conditions: Oryctolagus cuniculus, read-out: IC50 value (50% relaxation concentration)
Procedure: Relaxation Effect on Potassium-Induced Contraction of Isolated Rabbit Urinary Bladder
Urinary bladder was isolated from Male NZW rabbits (body weight: 2.0-3.5 kg) and immersed in ice-cold Krebs-bicarbonate solution (in mM: 118 NaCl, 4.7 KCl, 2.55 CaCl2, 1.18 MgSO4, 1.18 KH2PO4, 24.88 NaHCO3 and 11.1 glucose). The urinary bladder was cut into longitudinal strips (5 mm length 3-4 mm width) after mucosal layer was removed.
Preparations were mounted in organ baths containing 10 ml of Krebs solution maintained at 37° C. and gassed with 95% O2/5% CO2. Accordingly, preparations were stretched with an initial tension of 2.0±1.0 g, and changes in isometric tension were measured by force-displacement transducer. The preparations were pre-contracted by changing organ-bath solution into high-K^+ (30 mM) Krebs solution (in mM: 118 NaCl, […], 2.55 CaCl2, 1.18 MgSO4, 1.18 KH2PO4, 24.88 NaHCO3 and 11.1 glucose).
After stable tension was obtained, compounds were added into organ baths cumulatively (10^−8 M-10^−4 M). The effects of compounds were expressed as a percentage of the maximum relaxation produced by 10^−4 M papaverine as 100%. 50% relaxation concentration (IC50) was calculated and IC50 value range (μM) of compounds of the present invention was shown in the following Table 1 with a rank of A, B or C. These ranges are as mentioned below. • 3 μM≧C>1 μM≧B>0.5 μM≧A

O=C([O-])Cc1oc(-c2ccccc2)cc1-c1ccc(Cl)s1.[Na+] [2 (Compound 6)] gave a 100% inhibiting time [1] of 13.1 min and an IC50 [2] of under 500 nM.

Work on O=C([O-])Cc1sc(-c2ccccc2)cc1-c1ccc(Cl)s1.[Na+] [3 (Compound 6)] yielded a 100% inhibiting time [1] of 27.1 min and an IC50 [2] of 500 to 1000 nM.
